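Grown in 96-well plates, cells were treated for 48 hours with each compound at five concentrations. Insufficient inhibition: endpoint recorded as highest concentration tested. The concentration for full growth arrest is given as TGI.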
Columns and labels:
Assay in all cases: growth of human tumour cells (NCI), 48 h
T-47D breast = system: T-47D breast
U251 CNS = system: U251 CNS
MALME-3M melanoma = system: MALME-3M melanoma
MDA-MB-435 = system: MDA-MB-435
SNB-19 CNS = system: SNB-19 CNS
NCI/ADR-RES ovarian = system: NCI/ADR-RES ovarian
DU-145 prostate = system: DU-145 prostate
HOP-62 NSCLC = system: HOP-62 NSCLC
A498 renal = system: A498 renal
NCI-H522 lung = system: NCI-H522 lung
SW-620 colon = system: SW-620 colon
SR leukemia = system: SR leukemia
HL-60(TB) leukemia = system: HL-60(TB) leukemia
SN12C renal = system: SN12C renal
UACC-257 melanoma = system: UACC-257 melanoma
BT-549 breast = system: BT-549 breast
NCI-H226 lung = system: NCI-H226 lung
HOP-92 NSCLC = system: HOP-92 NSCLC
EKVX NSCLC = system: EKVX NSCLC
IGROV1 ovarian = system: IGROV1 ovarian
MDA-N = system: MDA-N
K-562 leukemia = system: K-562 leukemia
HCC-2998 colon = system: HCC-2998 colon
HCT-15 colon = system: HCT-15 colon
OVCAR-4 ovarian = system: OVCAR-4 ovarian
CAKI-1 renal = system: CAKI-1 renal
SF-268 CNS = system: SF-268 CNS
MCF7 breast = system: MCF7 breast
HS 578T breast = system: HS 578T breast
A549 NSCLC = system: A549 NSCLC
SK-MEL-28 melanoma = system: SK-MEL-28 melanoma
ACHN renal = system: ACHN renal
SNB-75 CNS = system: SNB-75 CNS
RPMI-8226 leukemia = system: RPMI-8226 leukemia
SF-539 CNS = system: SF-539 CNS
OVCAR-8 ovarian = system: OVCAR-8 ovarian
SK-MEL-5 melanoma = system: SK-MEL-5 melanoma
UACC-62 melanoma = system: UACC-62 melanoma
786-0 renal = system: 786-0 renal
LOX IMVI melanoma = system: LOX IMVI melanoma
M14 melanoma = system: M14 melanoma
KM12 colon = system: KM12 colon
MOLT-4 leukemia = system: MOLT-4 leukemia
MDA-MB-231 breast = system: MDA-MB-231 breast
HT29 colon = system: HT29 colon
CCRF-CEM leukemia = system: CCRF-CEM leukemia
COLO 205 colon = system: COLO 205 colon
SK-OV-3 ovarian = system: SK-OV-3 ovarian
NCI-H460 lung = system: NCI-H460 lung
RXF 393 renal = system: RXF 393 renal
SF-295 CNS = system: SF-295 CNS
UO-31 renal = system: UO-31 renal
PC-3 prostate = system: PC-3 prostate
SK-MEL-2 melanoma = system: SK-MEL-2 melanoma
OVCAR-3 ovarian = system: OVCAR-3 ovarian
OVCAR-5 ovarian = system: OVCAR-5 ovarian
NCI-H23 lung = system: NCI-H23 lung
TK-10 renal = system: TK-10 renal
HCT-116 colon = system: HCT-116 colon
KM20L2 colon = system: KM20L2 colon
HOP-18 NSCLC = system: HOP-18 NSCLC
M19-MEL melanoma = system: M19-MEL melanoma
SNB-78 CNS = system: SNB-78 CNS
DMS 273 small cell lung = system: DMS 273 small cell lung
LXFL 529 NSCLC = system: LXFL 529 NSCLC
DMS 114 small cell lung = system: DMS 114 small cell lung
DLD-1 colon = system: DLD-1 colon

## c1ccc(CCN(Cc2nc3ccccc3[nH]2)Cc2nc3ccccc3[nH]2)cc1
T-47D breast
  TGI: 40.8 µM
U251 CNS
  TGI: 19.8 µM
MALME-3M melanoma
  TGI: 45.7 µM
MDA-MB-435
  TGI: 29.8 µM
SNB-19 CNS
  TGI: > 31.6 µM
NCI/ADR-RES ovarian
  TGI: 18.1 µM
DU-145 prostate
  TGI: 31.7 µM
HOP-62 NSCLC
  TGI: 24.9 µM
A498 renal
  TGI: 30.6 µM
NCI-H522 lung
  TGI: 49.4 µM
SW-620 colon
  TGI: 26 µM
SR leukemia
  TGI: 35.3 µM
HL-60(TB) leukemia
  TGI: 7.8 µM
SN12C renal
  TGI: 30.8 µM
UACC-257 melanoma
  TGI: 32.5 µM
BT-549 breast
  TGI: 27.2 µM
NCI-H226 lung
  TGI: > 68.5 µM
HOP-92 NSCLC
  TGI: 30.7 µM
EKVX NSCLC
  TGI: > 77.8 µM
IGROV1 ovarian
  TGI: 17.8 µM
MDA-N
  TGI: 36.3 µM
K-562 leukemia
  TGI: 12.9 µM
HCC-2998 colon
  TGI: 33.6 µM
HCT-15 colon
  TGI: 22.1 µM
OVCAR-4 ovarian
  TGI: 68.9 µM
CAKI-1 renal
  TGI: 12.5 µM
SF-268 CNS
  TGI: 33.6 µM
MCF7 breast
  TGI: 35.1 µM
HS 578T breast
  TGI: 43.4 µM
A549 NSCLC
  TGI: 44.8 µM
SK-MEL-28 melanoma
  TGI: 30.4 µM
ACHN renal
  TGI: 22.4 µM
SNB-75 CNS
  TGI: 36.7 µM
RPMI-8226 leukemia
  TGI: 11.6 µM
SF-539 CNS
  TGI: 38.9 µM
OVCAR-8 ovarian
  TGI: 18.6 µM
SK-MEL-5 melanoma
  TGI: 16.3 µM
UACC-62 melanoma
  TGI: 28.3 µM
786-0 renal
  TGI: 31.7 µM
LOX IMVI melanoma
  TGI: 23.1 µM
M14 melanoma
  TGI: 26.7 µM
KM12 colon
  TGI: 27.3 µM
MOLT-4 leukemia
  TGI: 39.3 µM
MDA-MB-231 breast
  TGI: 31.8 µM
HT29 colon
  TGI: > 63.5 µM
CCRF-CEM leukemia
  TGI: > 100 µM
COLO 205 colon
  TGI: 31.2 µM
SK-OV-3 ovarian
  TGI: 70 µM
NCI-H460 lung
  TGI: 28.3 µM
RXF 393 renal
  TGI: 28.9 µM
SF-295 CNS
  TGI: 35.4 µM
UO-31 renal
  TGI: 26.2 µM
PC-3 prostate
  TGI: 36.7 µM
SK-MEL-2 melanoma
  TGI: 36.6 µM
OVCAR-3 ovarian
  TGI: 48.5 µM
OVCAR-5 ovarian
  TGI: 71.6 µM
NCI-H23 lung
  TGI: 37.9 µM
TK-10 renal
  TGI: 35.7 µM
HCT-116 colon
  TGI: 17 µM

## O=C(O)c1cc2c(cn1)[nH]c1ccccc12
KM20L2 colon
  TGI: > 100 µM
U251 CNS
  TGI: > 100 µM
HOP-18 NSCLC
  TGI: > 100 µM
MALME-3M melanoma
  TGI: > 100 µM
SNB-19 CNS
  TGI: > 100 µM
HOP-62 NSCLC
  TGI: > 100 µM
NCI-H522 lung
  TGI: > 100 µM
SW-620 colon
  TGI: > 100 µM
SR leukemia
  TGI: > 100 µM
HL-60(TB) leukemia
  TGI: > 100 µM
SN12C renal
  TGI: > 100 µM
M19-MEL melanoma
  TGI: > 100 µM
UACC-257 melanoma
  TGI: > 100 µM
SNB-78 CNS
  TGI: > 100 µM
NCI-H226 lung
  TGI: > 100 µM
HOP-92 NSCLC
  TGI: > 100 µM
EKVX NSCLC
  TGI: > 100 µM
IGROV1 ovarian
  TGI: > 100 µM
K-562 leukemia
  TGI: > 100 µM
HCC-2998 colon
  TGI: > 100 µM
HCT-15 colon
  TGI: > 100 µM
DMS 273 small cell lung
  TGI: > 100 µM
OVCAR-4 ovarian
  TGI: > 100 µM
CAKI-1 renal
  TGI: > 100 µM
SF-268 CNS
  TGI: > 100 µM
A549 NSCLC
  TGI: > 100 µM
SK-MEL-28 melanoma
  TGI: > 100 µM
ACHN renal
  TGI: > 100 µM
SNB-75 CNS
  TGI: > 100 µM
RPMI-8226 leukemia
  TGI: > 100 µM
SF-539 CNS
  TGI: > 100 µM
OVCAR-8 ovarian
  TGI: > 100 µM
SK-MEL-5 melanoma
  TGI: > 100 µM
UACC-62 melanoma
  TGI: > 100 µM
786-0 renal
  TGI: > 100 µM
LXFL 529 NSCLC
  TGI: > 100 µM
LOX IMVI melanoma
  TGI: > 100 µM
M14 melanoma
  TGI: > 100 µM
KM12 colon
  TGI: > 100 µM
MOLT-4 leukemia
  TGI: > 100 µM
DMS 114 small cell lung
  TGI: > 100 µM
HT29 colon
  TGI: > 100 µM
CCRF-CEM leukemia
  TGI: > 100 µM
COLO 205 colon
  TGI: > 100 µM
SK-OV-3 ovarian
  TGI: > 100 µM
NCI-H460 lung
  TGI: > 100 µM
RXF 393 renal
  TGI: > 100 µM
SF-295 CNS
  TGI: > 100 µM
UO-31 renal
  TGI: > 100 µM
OVCAR-3 ovarian
  TGI: > 100 µM
DLD-1 colon
  TGI: > 100 µM
OVCAR-5 ovarian
  TGI: > 100 µM
NCI-H23 lung
  TGI: > 100 µM
TK-10 renal
  TGI: > 100 µM
HCT-116 colon
  TGI: > 100 µM
